Literature values in patent US20260216081A1, “METFORMIN HYDROCHLORIDE ENTERIC-COATED PREPARATION” (YAYAN (TIANJIN) BIOMEDICAL TECHNOLOGY CENTER (LIMITED …, priority 2023, published 2026).

Conditions: background statement

For `CN(C)C(=N)N=C(N)N` [metformin], the “Incidence of gastrointestinal adverse reactions” value is listed as 20-30%.
